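Where inhibition never reached the appropriate level, the endpoint shown equals the highest concentration tested. Otherwise, values were interpolated linearly from a five-concentration, 48-hour dose response in 96-well plates. GI50 marks 50% less growth. TGI marks complete inhibition of growth.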
Experiments:
Test in all cases: NCI tumour cell line growth inhibition, 48 h
[1] = tested on: HOP-62 NSCLC
[2] = tested on: CCRF-CEM leukemia
[3] = tested on: HL-60(TB) leukemia
[4] = tested on: SF-539 CNS
[5] = tested on: SF-295 CNS
[6] = tested on: SK-MEL-2 melanoma
[7] = tested on: RXF 393 renal
[8] = tested on: SNB-75 CNS
[9] = tested on: K-562 leukemia
[10] = tested on: SK-OV-3 ovarian
[11] = tested on: LXFL 529 NSCLC
[12] = tested on: A549 NSCLC
[13] = tested on: RPMI-8226 leukemia
[14] = tested on: NCI-H460 lung
[15] = tested on: ACHN renal
[16] = tested on: MALME-3M melanoma
[17] = tested on: HCT-116 colon
[18] = tested on: UACC-257 melanoma
[19] = tested on: NCI-H522 lung
[20] = tested on: U251 CNS
[21] = tested on: RXF-631 renal
[22] = tested on: HOP-92 NSCLC
[23] = tested on: OVCAR-8 ovarian
[24] = tested on: NCI-H23 lung
[25] = tested on: LOX IMVI melanoma
[26] = tested on: DMS 114 small cell lung
[27] = tested on: XF 498 CNS
[28] = tested on: KM12 colon
[29] = tested on: EKVX NSCLC
[30] = tested on: HCC-2998 colon
[31] = tested on: A498 renal
[32] = tested on: KM20L2 colon
[33] = tested on: 786-0 renal
[34] = tested on: SK-MEL-28 melanoma
[35] = tested on: OVCAR-3 ovarian
[36] = tested on: UO-31 renal
[37] = tested on: COLO 205 colon
[38] = tested on: SNB-19 CNS
[39] = tested on: HOP-18 NSCLC
[40] = tested on: IGROV1 ovarian
[41] = tested on: TK-10 renal
[42] = tested on: MOLT-4 leukemia
[43] = tested on: SNB-78 CNS
[44] = tested on: M19-MEL melanoma
[45] = tested on: OVCAR-5 ovarian
[46] = tested on: SW-620 colon
[47] = tested on: DMS 273 small cell lung
[48] = tested on: DLD-1 colon
[49] = tested on: SF-268 CNS
[50] = tested on: HT29 colon
[51] = tested on: NCI/ADR-RES ovarian
[52] = tested on: P388 leukemia
[53] = tested on: HCT-15 colon
[54] = tested on: NCI-H226 lung
[55] = tested on: SN12C renal
[56] = tested on: OVCAR-4 ovarian
[57] = tested on: P388/ADR leukemia
[58] = tested on: MCF7 breast
[59] = tested on: UACC-62 melanoma
[60] = tested on: SN12K1 renal
[61] = tested on: SK-MEL-5 melanoma

Question: Which TGI [1] does the source give for `CC(C)CC(=O)N1CCN(C(=O)CC(C)C)c2ccccc21` here?
Answer: > 100 µM

Question: And the TGI [2]?
Answer: > 100 µM

Question: What about the TGI [3] of the same molecule?
Answer: > 100 µM

Question: And the TGI [4]?
Answer: > 100 µM

Question: What about the TGI [5] of the same molecule?
Answer: > 100 µM

Question: And the TGI [6]?
Answer: > 100 µM

Question: And the TGI [7]?
Answer: > 100 µM

Question: And the TGI [8]?
Answer: > 100 µM

Question: And the TGI [9]?
Answer: > 100 µM

Question: And the TGI [10]?
Answer: > 100 µM

Question: And the TGI [11]?
Answer: > 100 µM

Question: What about the TGI [12] of the same molecule?
Answer: > 100 µM

Question: What about the TGI [13] of the same molecule?
Answer: > 100 µM

Question: And the TGI [14]?
Answer: > 100 µM

Question: And the TGI [15]?
Answer: > 100 µM

Question: What about the TGI [16] of the same molecule?
Answer: > 100 µM

Question: And the TGI [17]?
Answer: > 100 µM

Question: What about the TGI [18] of the same molecule?
Answer: > 100 µM

Question: What about the TGI [19] of the same molecule?
Answer: > 100 µM

Question: And the TGI [20]?
Answer: > 100 µM

Question: What about the TGI [21] of the same molecule?
Answer: > 100 µM

Question: And the TGI [22]?
Answer: > 100 µM

Question: What about the TGI [23] of the same molecule?
Answer: > 100 µM

Question: And the TGI [24]?
Answer: > 100 µM

Question: And the TGI [25]?
Answer: > 100 µM

Question: And the TGI [26]?
Answer: > 100 µM

Question: And the TGI [27]?
Answer: > 100 µM

Question: What about the TGI [28] of the same molecule?
Answer: > 100 µM

Question: What about the TGI [29] of the same molecule?
Answer: > 100 µM

Question: And the TGI [30]?
Answer: > 100 µM

Question: And the TGI [31]?
Answer: > 100 µM

Question: And the TGI [32]?
Answer: > 100 µM

Question: And the TGI [33]?
Answer: > 100 µM

Question: What about the TGI [34] of the same molecule?
Answer: > 100 µM

Question: And the TGI [35]?
Answer: > 100 µM

Question: And the TGI [36]?
Answer: > 100 µM

Question: What about the TGI [37] of the same molecule?
Answer: > 100 µM

Question: And the TGI [38]?
Answer: > 100 µM

Question: And the TGI [39]?
Answer: > 100 µM

Question: And the TGI [40]?
Answer: > 100 µM

Question: And the TGI [41]?
Answer: > 100 µM

Question: And the TGI [42]?
Answer: > 100 µM

Question: What about the TGI [43] of the same molecule?
Answer: > 100 µM

Question: What about the TGI [44] of the same molecule?
Answer: > 100 µM

Question: What about the TGI [45] of the same molecule?
Answer: > 100 µM

Question: And the TGI [46]?
Answer: > 100 µM

Question: What about the TGI [47] of the same molecule?
Answer: > 100 µM

Question: And the TGI [48]?
Answer: > 100 µM

Question: What about the TGI [49] of the same molecule?
Answer: > 100 µM

Question: What about the TGI [50] of the same molecule?
Answer: > 100 µM

Question: `O=c1oc2c(ccc3occc32)c(N2CCCCC2)c1-c1ccccc1` was tested. Which TGI [51] did it give?
Answer: > 100 µM

Question: What about the TGI [1] of the same molecule?
Answer: > 100 µM

Question: And the TGI [2]?
Answer: > 59.5 µM

Question: And the TGI [52]?
Answer: > 100 µM

Question: What about the TGI [3] of the same molecule?
Answer: 80.1 µM

Question: What about the TGI [4] of the same molecule?
Answer: > 100 µM

Question: And the TGI [5]?
Answer: > 100 µM

Question: And the TGI [6]?
Answer: > 100 µM

Question: And the TGI [7]?
Answer: > 100 µM

Question: What about the TGI [53] of the same molecule?
Answer: > 100 µM

Question: And the TGI [8]?
Answer: > 100 µM

Question: And the TGI [9]?
Answer: > 100 µM

Question: And the GI50 [10]?
Answer: > 100 µM

Question: And the TGI [10]?
Answer: > 100 µM

Question: And the TGI [12]?
Answer: > 100 µM

Question: What about the TGI [14] of the same molecule?
Answer: > 100 µM

Question: And the TGI [16]?
Answer: > 100 µM

Question: What about the TGI [17] of the same molecule?
Answer: > 100 µM

Question: And the TGI [19]?
Answer: > 100 µM

Question: And the GI50 [54]?
Answer: > 100 µM

Question: And the TGI [54]?
Answer: > 100 µM

Question: What about the TGI [20] of the same molecule?
Answer: > 100 µM

Question: What about the TGI [22] of the same molecule?
Answer: > 100 µM

Question: What about the TGI [23] of the same molecule?
Answer: > 100 µM

Question: What about the TGI [24] of the same molecule?
Answer: > 100 µM

Question: And the TGI [25]?
Answer: > 100 µM

Question: What about the TGI [26] of the same molecule?
Answer: > 100 µM

Question: And the TGI [27]?
Answer: > 100 µM

Question: And the TGI [28]?
Answer: > 100 µM

Question: And the TGI [55]?
Answer: > 100 µM

Question: What about the TGI [29] of the same molecule?
Answer: > 100 µM

Question: What about the TGI [30] of the same molecule?
Answer: > 100 µM

Question: What about the TGI [31] of the same molecule?
Answer: > 100 µM

Question: And the TGI [32]?
Answer: > 100 µM

Question: What about the TGI [56] of the same molecule?
Answer: > 100 µM

Question: What about the TGI [57] of the same molecule?
Answer: > 100 µM

Question: What about the TGI [34] of the same molecule?
Answer: > 100 µM

Question: And the TGI [35]?
Answer: > 100 µM

Question: And the TGI [58]?
Answer: > 100 µM

Question: What about the TGI [36] of the same molecule?
Answer: > 30.3 µM

Question: And the TGI [37]?
Answer: > 100 µM

Question: And the TGI [59]?
Answer: > 100 µM

Question: What about the TGI [38] of the same molecule?
Answer: > 100 µM

Question: And the TGI [39]?
Answer: > 100 µM

Question: What about the TGI [60] of the same molecule?
Answer: > 100 µM

Question: What about the TGI [40] of the same molecule?
Answer: > 100 µM

Question: What about the TGI [42] of the same molecule?
Answer: > 31.7 µM

Question: And the TGI [43]?
Answer: > 100 µM

Question: What about the TGI [44] of the same molecule?
Answer: > 100 µM

Question: And the TGI [45]?
Answer: > 100 µM

Question: And the TGI [61]?
Answer: > 100 µM

Question: What about the TGI [46] of the same molecule?
Answer: > 100 µM

Question: And the TGI [47]?
Answer: > 100 µM

Question: And the TGI [48]?
Answer: > 100 µM

Question: What about the TGI [49] of the same molecule?
Answer: > 100 µM

Question: What about the TGI [50] of the same molecule?
Answer: > 100 µM
